Measurements reported in US20090227606A1, “Methods for Preventing or Treating Acute and Chronic Pain” (priority 2006, published 2009).
“Also recorded” adds a separate entry of the source. Like-named read-outs stand apart in the source and are kept apart here.

Experiments:
GLT-1 = settings: Zelenaia et al. 2000, cited from earlier work; for effect on db-cAMP-dependent GLT-1 expression: db-cAMP-treated astrocytes; for GLT-1 induction in cultured astrocytes: Schlag et al. 1998
[1] = tested on: primary cultured astrocytes; assay: Astrocyte morphology and process length, phase contrast microscopy; type: cell-based, rat
Protocol: Astrocyte cultures were prepared from the cortices of neonatal rats (1-3 days old) using the Worthington Papain Dissociation System (Worthington Biochemical Corporation, Lakewood, N.J.) according to the method of Huettner and Baughman (1986. J. Neurosci. 6:3044-3060). Briefly, cortices of neonatal rats were dissected, treated with papain (20 U/ml), dissociated by trituration and plated in 75 cm^2 flasks in Dulbecco's modified Eagle's medium (DMEM) supplemented with 10% charcoal-stripped fetal bovine serum (FBS), 1% GlutaMax and 1% penicillin/streptomycin (P/S, 100 U/ml penicillin, 100 μg/ml streptomycin, P/S). Cells were fed twice weekly until they reached confluence (Day in vitro, DIV 10-12) at which point they were mechanically shaken for 1 hr on an orbital shaker to remove any remaining oligodendrocytes and microglia. Subsequently, cultures were treated with trypsin for 30 minutes at 37° C. and re-plated into 6 or 12-well dishes at a density of about 3.0×10^4 cells/cm^2. Resultant cultures were greater than 95% astrocytic as determined by GFAP immunostaining.
(§1) After approximately 14 days (2 days after subplating into plates, DIV 14) astrocytes had formed a confluent monolayer. […] Phase contrast microscopy was then carried out in order to assess the morphology of cells after the various treatments. Length of astrocyte processes was quantified by measuring all processes in 2-3 phase contrast images/group by an independent observer, blinded to the treatment groups using Image J v1.34s (National Institutes of Health, Bethesda, Md.).

GLAST [2] = assay: Immunocytochemistry of cultured astrocytes, GLAST staining; type: cell-based, rat; settings: treated astrocytes
Protocol: Primary astrocyte-enriched cultures were plated onto sterile 18 mm glass coverslips. After three washes in PBS, cells were permeabilized in 5% glacial acetic acid/95% ethanol (acid-alcohol) for 10 minutes. After washing, cells were incubated in a 1% normal goat serum for 30 minutes and then overnight at 4° C. in primary mouse anti-GFAP (1:500), rabbit anti-GLT-1 (1:500) or guinea pig anti-GLAST (1:2000). The following day, cells were washed and then incubated for 2 hours at room temperature with goat anti-mouse Alexa Fluor™-555 (Invitrogen Corporation, Carlsbad, Calif.) goat anti-guinea pig Alexa Fluor™-488 (Invitrogen Corporation, Carlsbad, Calif.) or goat anti-rabbit Alexa Fluor™-488 (Invitrogen Corporation, Carlsbad, Calif.; all at 1:250). Finally, cells were post-fixed in acid-alcohol and mounted with Vectashield (Vector Labs, Burlingame, Calif.) containing 4′,6-diamidino-2-phenylindole dihydrochloride hydrate (DAPI, Sigma Chemical Co., St Louis, Mo.), in order to visualize cell nuclei. The sections were examined with a fluorescence microscope, and images were captured with a Q-Fire cooled camera (Olympus, Melville, N.Y.). Confocal microscopy was also performed using a Zeiss LSM 510 Meta confocal microscope (Carl Zeiss AG, Oberkochen, Germany). Merged color images were processed using Adobe Photoshop 7.0 (Adobe Systems, San Jose, Calif.).

GLT-1 mRNA = assay: Real Time RT-PCR of cultured astrocytes, GLT-1 mRNA; type: cell-based, rat; settings: propentofylline 10, 100, 1000 μM; db-cAMP 250 μM; relative to GAPDH
Protocol: as §1
(§2) Total RNA was isolated from astrocyte cultures using the Qiagen RNeasy mini-kit (Qiagen Inc., Valencia, Calif.) according to the manufacturer's protocol for isolation of total RNA from animal cells. Reverse transcription (RT) was carried out using the high-capacity cDNA archive kit (Applied Biosystems, Foster City, Calif.) according to the vendor's protocol. Real-time RT-PCR reactions were carried out in a total reaction volume of 25 μL containing a final concentration of 1.5 U Platinum Taq DNA polymerase (Invitrogen Corporation, Carlsbad, Calif.); 20 mM Tris HCl (pH 8.4); 50 mM KCl; 3 mM MgCl2; 200 μM dGTP, dCTP, and dATP; 400 μM dUTP and 1 U of UDG (uracyl DNA glycosylase); 900 nM of forward and reverse primers; 300 nM Taqman probe; and 5 μL of cDNA (50 ng) from the RT step. The iCycler™ Multicolor Real-Time PCR detection system (Bio-Rad Laboratories, Hercules, Calif.) was used to quantify PCR product. The fluorescence and threshold values (CT) obtained were used to compare the relative amount of target mRNA in experimental groups to those of controls using the 2^−ΔΔC^T method (Livak, K. J. and T. D. Schmittgen. 2001. Methods 25:402-408). Each experiment was run twice and samples were run in duplicate. For each sample, the mean CT value for the control gene (GAPDH) was then subtracted from the mean CT value for the gene of interest (GLT-1, GLAST) to obtain a ΔCT value. The ΔCT values for the control group (untreated) were then averaged and subtracted from the ΔCT for the experimental groups to obtain the ΔΔCT. The relative fold change from control was then expressed by calculation of 2^−ΔΔC^T for each sample and the results are expressed as the group mean fold change±SEM.

GLAST mRNA = assay: Real Time RT-PCR of cultured astrocytes, GLAST mRNA; type: cell-based, rat; settings: propentofylline 10, 100, 1000 μM; db-cAMP 250 μM; relative to GAPDH
Protocol: as §1
as §2, with “The ΔCT values for the control group (untreated) were then averaged and subtracted from the ΔCT for the experimental groups to obtain the ΔΔCT.” left out

GLAST [3] = assay: Western blot of cultured astrocytes, GLAST protein; type: cell-based, rat; settings: 3 or 7 days, normalized to β-actin
Protocol: as §1
Cells were scraped into PBS containing a protease inhibitor cocktail (1:1000, Sigma Chemical Co., St. Louis, Mo.) and then lysed by sonication in 5 one-second pulses. The samples were stored at −80° C. until use. Total protein was determined using the Lowry method (DC assay, Bio-Rad, Hercules, Calif.). Forty micrograms of protein (diluted in sample buffer and boiled) and standard protein markers were subjected to SDS/7.5% polyacrylamide gel electrophoresis and transferred to polyvinylidene difluoride (PVDF) membranes. Nonspecific binding was blocked by incubation with 5% milk/PBS-Tween at room temperature for 1 hour followed by incubation overnight at 4° C. with rabbit anti-GLT-1 (1:500) or guinea pig anti-GLAST (1:2500). The following day, blots were washed and incubated for 1 hour at room temperature with goat anti-rabbit HRP-conjugated secondary (1:3000) or goat anti-guinea pig HRP-conjugated secondary antibody (1:5000) and visualized with enhanced chemiluminescence (ECL). Images were obtained using the Typhoon Imaging System (Amersham-GE Healthcare, Piscataway, N.J.). Finally, blots were incubated for 15 minutes in stripping buffer and reprobed with a monoclonal mouse anti-β-actin antibody (1:10,000) as a loading control. Densitometric analysis was performed using ImageQuant 5.2 (Molecular Dynamics, GE Healthcare, Piscataway, N.J.).

MIP-2 (CXCL2) = assay: ELISA of MIP-2 release from cultured astrocytes; type: cell-based, rat; settings: seven days, LPS 1 μg/ml; propentofylline 1000 μM; db-cAMP 250 μM
Protocol: as §1
(§3) Standard ELISA was performed for quantitative determination of MCP-1 and MIP-2 protein in cell culture supernatant. Assays were carried out according to the manufacturer's specifications (Biosource, Camarillo, Calif.) using the sandwich enzyme immunoassay procedure. Optical density at 450 nm was obtained using the MRX Revelations program (Dynex Technologies, Chantilly, Va.) and relative protein concentrations were determined by comparing samples to the standard curve generated.

MCP-1 (CCL2) = assay: ELISA of MCP-1 release from cultured astrocytes; type: cell-based, rat; settings: seven days
Protocol: as §1, §3

[4] = tested on: Na+-dependent glutamate transport; settings: db-cAMP, Schlag et al. 1998; cited from earlier work

Question: For `CCCCCCOC(=O)[C@]1(O)C[C@@H]2O[C@@]1(C)n1c3ccccc3c3c4c(c5c6ccccc6n2c5c31)C(=O)NC4` [KT5720], which “effect on db-cAMP-dependent GLT-1 expression” value (“effect” below) (GLT-1) is on record?
Answer: blocks induction of GLT-1 protein

Question: With `S=C(S)N1CCCC1` [PDTC] as the compound, how does the “effect” value (GLT-1) read?
Answer: inhibited db-cAMP-mediated increases in GLT-1 expression

Question: With `COc1cccc(-c2cc(=O)c3ccccc3o2)c1N` [PD98059] as the compound, how does the “effect” value (GLT-1) read?
Answer: partially attenuates

Question: With `CCCC(=O)Nc1ncnc2c1ncn2[C@@H]1O[C@@H]2COP(=O)(O)O[C@H]2[C@H]1OC(=O)CCC` [db-cAMP, dibutyryl cyclic-adenosine-5′,3′-monophosphate] as the compound, how does the astrocyte morphology ([1]; 3 days or 7 days of treatment, phase contrast microscopy) read?
Answer: extend fewer, longer processes

Question: And the “length of astrocyte processes” value ([1]; 7 days, 250 μM db-cAMP vs. 1000 μM propentofylline)?
Answer: significantly longer processes than propentofylline; also recorded: significantly longer processes than PPF

Question: And the GLAST staining (GLAST [2])?
Answer: slightly increased GLAST staining

Question: And the “GLT-1 mRNA level, in words” value (GLT-1 mRNA)?
Answer: mimicked

Question: What about the “GLAST mRNA level, in words” value (GLAST mRNA) of the same compound?
Answer: mimicked

Question: What about the “GLAST protein level, in words” value (GLAST [3]) of the same compound?
Answer: greater increase in GLAST than high dose propentofylline

Question: What about the “LPS-induced MIP-2 (CXCL2) release” value (MIP-2 (CXCL2)) of the same compound?
Answer: had no effect on LPS-induced chemokine release

Question: What about the “LPS-induced MCP-1 (CCL2) release” value (MCP-1 (CCL2); LPS 1 μg/ml, propentofylline 1000 μM, db-cAMP 250 μM) of the same compound?
Answer: had no effect on LPS-induced chemokine release

Question: And the “basal MCP-1 (CCL2) release, treatment alone” value (MCP-1 (CCL2); without LPS)?
Answer: significantly increased MCP-1 (CCL2) above basal levels

Question: What about the “increase in glutamate transport activity” value [4] of the same compound?
Answer: 2 fold

Question: What about the “sensitivity of increased glutamate uptake to DHK” value [4] of the same compound?
Answer: DHK-insensitive

Question: What about the “GLT-1 induction in cultured astrocytes” value (GLT-1) of the same compound?
Answer: induced high levels of GLT-1 protein expression

Question: What about the “GLT-1 induction in cultured astrocytes” value (GLT-1; listed as dibutyryl-cAMP) of the same compound?
Answer: induce astrocytic maturation and GLT-1 induction
